Values quoted from earlier work as cited in patent publication US10117939B2, “Pharmaceutical compositions comprising nebivolol or a nebivolol analogue” (MYLAN PHARMACEUTICALS ULC, priority 2007, dated 2018).

Details: as described in EP 0 744 946

Row | Compound | Dissolution (in words)
1 | Cl.O[C@H](CNC[C@@H](O)[C@H]1CCc2cc(F)ccc2O1)[C@@H]1CCc2cc(F)ccc2O1 [“micronized” nebivolol hydrochloride] | even worse than material in the normal crystalline form
2 | Cl.O[C@H](CNC[C@@H](O)[C@H]1CCc2cc(F)ccc2O1)[C@@H]1CCc2cc(F)ccc2O1 (relative stereo) [nebivolol hydrochloride, ((±))-(R*(S*(S*—(S*))))-(alpha),(alpha)′-(iminobis(methylene)bis-(6-fluoro-3,4-dihydro-2H-1-benzopyran-2-methanol)] | poor dissolution
